# Experimental data reported in patent publication US12630785B2, “Liquid fabric care compositions comprising capsules” (The Procter & Gamble Company, priority 2020, dated 2026).
# Experiments:
# [1] = Capsule perfume leakage in liquid fabric enhancer (LFE), headspace SPME GC/MS; type: physicochemical
# Method: The testing of capsule leakage in liquid compositions (e.g., liquid fabric enhancer/“LFE” compositions and/or heavy-duty liquid/“HDL” detergents) is performed as follows. […] The 1 gram aliquot in the 7 ml vial is then mixed on a stirring plate for 24 h at 500 rpm, thereby ensuring that the capsules are broken by the grinding action of the stir bar against the bottom of the 7 ml vial. Optical microscopy can be used to verify that no more intact capsules remain. In case such capsules are found, the step is to repeated for an additional 24 h, or until all or almost all capsules are broken. Then, the formulation containing broken capsules is introduced into GC vials in a similar manner as for step (a). This yields total oil samples. It is to be noted that the capsule sample and the total oil sample are not analyzed on the same day, as there is a need to prepare the total oil sample after the capsule sample has been removed from storage. […] The perfume oil composition formulated herein is representative of the perfume oil composition that is present in the slurry. Then the free oil formulation is introduced into GC vials in a similar manner as for step (a). This yields reference samples, which must be used when analyzing both the capsule sample and the total oil sample. […] Two headspace vials are prepared for each sample. The sealed headspace vials are then allowed to equilibrate. Samples reach equilibrium after 3 hours at room temperature, but can be left to sit longer without detriment or change to the results, up until 24 hours after sealing the headspace vial. After equilibrating, the samples are analyzed by GC/MS. […] The perfume composition is analyzed by fast GC/MS in full scan mode. Ion extraction of the specific mass for each component is obtained. The leakage is calculated as follows, separately for the capsule sample and total oil sample, where “Area” denotes the area under the chromatogram peak corresponding to the PRM of interest: Once calculated for all PRMs for both the total oil sample and the capsule sample, the corrected PRM leakage can be calculated using the following formula: Once the corrected PRM leakage has been calculated for all PRMs, the Average leakage can be found by taking the arithmetic mean of each corrected PRM leakage. […] The resulting products are stored for one week at 35° C. At the end of the storage period, samples of each product composition are analyzed for perfume leakage out of the capsule using headspace analysis. The data is reported as a percentage, determined by comparing the amount of the individual perfume raw materials found in the headspace to the amount originally provided to the capsules.
# [2] = Capsule perfume leakage in heavy-duty liquid (HDL) detergent, headspace SPME GC/MS; type: physicochemical
# Method: The testing of capsule leakage in liquid compositions (e.g., liquid fabric enhancer/“LFE” compositions and/or heavy-duty liquid/“HDL” detergents) is performed as follows. […] The 1 gram aliquot in the 7 ml vial is then mixed on a stirring plate for 24 h at 500 rpm, thereby ensuring that the capsules are broken by the grinding action of the stir bar against the bottom of the 7 ml vial. Optical microscopy can be used to verify that no more intact capsules remain. In case such capsules are found, the step is to repeated for an additional 24 h, or until all or almost all capsules are broken. Then, the formulation containing broken capsules is introduced into GC vials in a similar manner as for step (a). This yields total oil samples. It is to be noted that the capsule sample and the total oil sample are not analyzed on the same day, as there is a need to prepare the total oil sample after the capsule sample has been removed from storage. […] The perfume oil composition formulated herein is representative of the perfume oil composition that is present in the slurry. Then the free oil formulation is introduced into GC vials in a similar manner as for step (a). This yields reference samples, which must be used when analyzing both the capsule sample and the total oil sample. […] Two headspace vials are prepared for each sample. The sealed headspace vials are then allowed to equilibrate. […] After equilibrating, the samples are analyzed by GC/MS. […] The perfume composition is analyzed by fast GC/MS in full scan mode. Ion extraction of the specific mass for each component is obtained. The leakage is calculated as follows, separately for the capsule sample and total oil sample, where “Area” denotes the area under the chromatogram peak corresponding to the PRM of interest: Once calculated for all PRMs for both the total oil sample and the capsule sample, the corrected PRM leakage can be calculated using the following formula: Once the corrected PRM leakage has been calculated for all PRMs, the Average leakage can be found by taking the arithmetic mean of each corrected PRM leakage. […] The resulting products are stored for one week at 35° C. At the end of the storage period, samples of each product composition are analyzed for perfume leakage out of the capsule using headspace analysis. The data is reported as a percentage, determined by comparing the amount of the individual perfume raw materials found in the headspace to the amount originally provided to the capsules.
smiles,measurement,setting,value
CC(=O)OC1CC2CC1C1CC=CC21 (centres unmarked) [Verdyl acetate],Leakage (as %) after 1 week at 35° C.,"[1]; PRM of Perfume 1 out of Comparative Example 4-1 capsules (polyacrylate shell), LFE Composition 1, 0.25 wt % perfume",4%
same,Leakage (as %) after 1 week at 35° C.,"[1]; PRM of Perfume 1 out of Comparative Example 6-1 capsules (no second shell component), LFE Composition 1",20%
same,Leakage (as %) after 1 week at 35° C.,"[1]; PRM of Perfume 1 out of Comparative Example 10-1 capsules (per EP2500087B1), LFE Composition 1",89%
same,Leakage (as %) after 1 week at 35° C.,"[1]; PRM of Perfume 1 out of Comparative Example 10-2 capsules (per WO2010013250A2, with IPM), LFE Composition 1",94%
same,Leakage (as %) after 1 week at 35° C.,"[1]; PRM of Perfume 1 out of Example 2, Sample A capsules, LFE Composition 1 (Ester Quat 1)",1.2%
same,Leakage (as %) after 1 week at 35° C.,"[1]; PRM of Perfume 1 out of Example 2, Sample A capsules, LFE Composition 2 (Ester Quat 2)",0.8%
same,Leakage (as %) after 1 week at 35° C.,"[1]; PRM of Perfume 1 out of Example 2, Sample A capsules, LFE Composition 3 (Ester Quat 3)",1.2%
same,Leakage (as %) after 1 week at 35° C.,"[1]; PRM of Perfume 1 out of Example 4-1 capsules (silica shell), LFE Composition 1, 0.25 wt % perfume",5%
same,Leakage (as %) after 1 week at 35° C.,"[1]; PRM of Perfume 1 out of Example 6-1 capsules (w/ second shell component), LFE Composition 1",7%
same,Leakage (as %) after 1 week at 35° C.,"[1]; PRM of Perfume 1 out of Example 10-1 capsules (Sample F, Perfume 1/IPM 40/60), LFE Composition 1",17%
same,Leakage (as %) after 1 week at 35° C.,"[1]; PRM of Perfume 1 out of Example 10-2 capsules (Sample A), LFE Composition 1",7%
same,Leakage (as %) after 1 week at 35° C.,"[1]; PRM of Perfume 2 out of Capsule Sample C, LFE Composition 1",6%
same,Leakage (as %) after 1 week at 35° C.,"[1]; PRM of Perfume 3 out of Capsule Sample D, LFE Composition 1",8%
same,Leakage (as %) after 1 week at 35° C.,"[1]; PRM of Perfume 4 out of Comparative Example 9-1 capsules (per EP3078415A), LFE Composition 1",67%
same,Leakage (as %) after 1 week at 35° C.,"[1]; PRM of Perfume 4 out of Comparative Example 9-2 capsules (per EP3078415A, additional TEOS), LFE Composition 1",72%
same,Leakage (as %) after 1 week at 35° C.,"[1]; PRM of Perfume 4 out of Example 9-1 capsules (Sample E), LFE Composition 1",13%
same,Leakage (as %) after 1 week at 35° C.,[2]; PRM of Perfume 1 out of Comparative Example 5-1 capsules (polyacrylate shell),1%
same,Leakage (as %) after 1 week at 35° C.,[2]; PRM of Perfume 1 out of Comparative example 5-2 capsules (per EP2500087B1),107%
same,Leakage (as %) after 1 week at 35° C.,[2]; PRM of Perfume 1 out of Comparative example 5-3 capsules (per WO2010013250A2),104%
same,Leakage (as %) after 1 week at 35° C.,[2]; PRM of Perfume 1 out of Example 5-1 capsules (silica shell),26%
